These results are taken from patent publication USRE49742E1, “Drug delivery system for administration of poorly water soluble pharmaceutically active substances” (Vivesto AB, priority 2007, dated 2023).

For data set [1] the following is noted: cited from earlier work.
Data set [2] in a line: Solubility of calcium salt in water (concentration in filtered solution, UV method). It counts as physicochemical. The following applies: concentration in solution filtered through 0.2 μm filter. The protocol:
Aqueous solutions of a sodium salt of the methyl ester of N-all-trans-retinoyl cysteic acid (5 ml, 15 mg/ml) and calcium chloride (3 ml, 30 mg/ml) were mixed in a 10 ml test tube. During the mixing a fine precipitation emerged. The precipitate was separated by centrifugation of the test tube at 3000 rpm for 10 min. The supernatant was removed and the precipitate was shaken with 8 ml of water followed by a new centrifugation. After three additional washing procedures as described above the supernatant was filtered through a 0.2 μm filter in order to remove possible large aggregates of the product. […] The reaction is illustrated by the below general scheme involving chlorides of any polyvalent metal ions, not only calcium ions.

Regarding `C=CC[C@@H]1/C=C(\C)C[C@H](C)C[C@H](OC)[C@H]2O[C@@](O)(C(=O)C(=O)N3CCCC[C@H]3C(=O)O[C@H](/C(C)=C/[C@@H]3CC[C@@H](O)[C@H](OC)C3)[C@H](C)[C@@H](O)CC1=O)[C@H](C)C[C@@H]2OC` [tacrolimus], the “Bioavailability at oral administration” value in data set [1] is reported as “about 20%”.

Turning to `COC(=O)C(CS(=O)(=O)[O-])NC(=O)/C=C(C)/C=C/C=C(C)/C=C/C1=C(C)CCCC1(C)C.COC(=O)C(CS(=O)(=O)[O-])NC(=O)/C=C(C)/C=C/C=C(C)/C=C/C1=C(C)CCCC1(C)C.[Ca+2]` (stereo not drawn) [calcium salt of the methyl ester of N-all-trans-retinoyl cysteic acid], the solubility (in general, the dissolved amount per volume that the medium holds) in data set [2] was found to be 200 µg/mL.

With `CO[C@H]1C[C@@H]2CC[C@@H](C)[C@@](O)(O2)C(=O)C(=O)N2CCCC[C@H]2C(=O)O[C@H]([C@H](C)C[C@@H]2CC[C@@H](OCCO)[C@H](OC)C2)CC(=O)[C@H](C)/C=C(\C)[C@@H](O)[C@@H](OC)C(=O)[C@H](C)C[C@H](C)/C=C/C=C/C=C/1C` [everolimus], the “Bioavailability at oral administration” value in data set [1] is listed as “about 20%”.

With `CO[C@H]1C[C@@H]2CC[C@@H](C)[C@@](O)(O2)C(=O)C(=O)N2CCCC[C@H]2C(=O)O[C@H]([C@H](C)C[C@@H]2CC[C@@H](O)[C@H](OC)C2)CC(=O)[C@H](C)/C=C(\C)[C@@H](O)[C@@H](OC)C(=O)[C@H](C)C[C@H](C)/C=C/C=C/C=C/1C` [sirolimus], in data set [1], the “Bioavailability at oral administration” value is on record as “about 20%”.
